In this test the target is T1, rat NaP2b (SLC34A2) (Rattus norvegicus, UniProt Q9JJ09).
T1 construct: host or cells: HEK293
T1 sequence (Q9JJ09 1-695): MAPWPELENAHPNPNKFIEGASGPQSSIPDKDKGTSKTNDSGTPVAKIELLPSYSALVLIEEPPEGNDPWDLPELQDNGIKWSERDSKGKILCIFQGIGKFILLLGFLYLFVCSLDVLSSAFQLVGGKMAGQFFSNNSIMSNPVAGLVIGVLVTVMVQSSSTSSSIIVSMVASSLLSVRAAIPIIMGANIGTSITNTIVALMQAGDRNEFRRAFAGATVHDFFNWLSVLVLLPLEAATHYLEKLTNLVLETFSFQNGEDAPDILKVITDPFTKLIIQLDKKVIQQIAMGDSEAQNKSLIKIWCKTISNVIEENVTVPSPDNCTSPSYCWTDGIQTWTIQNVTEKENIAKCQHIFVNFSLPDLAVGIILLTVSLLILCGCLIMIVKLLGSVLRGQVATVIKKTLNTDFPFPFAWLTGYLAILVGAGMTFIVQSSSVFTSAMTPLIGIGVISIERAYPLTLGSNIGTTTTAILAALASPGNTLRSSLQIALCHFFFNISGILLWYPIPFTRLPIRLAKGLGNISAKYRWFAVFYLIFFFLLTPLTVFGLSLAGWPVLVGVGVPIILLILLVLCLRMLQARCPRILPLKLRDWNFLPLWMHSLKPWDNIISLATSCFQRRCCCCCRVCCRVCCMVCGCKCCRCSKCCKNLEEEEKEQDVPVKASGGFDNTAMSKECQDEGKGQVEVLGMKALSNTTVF
As to the kind of experiment: NaP2b-mediated Pi transport (33P uptake) in transfected HEK293 cells, rat NaP2b. Particulars: Structure (V) examples, Table 2; rat NaP2b, HEK293; read-out: pIC50 Range (converted). It is filed as cell-based. The essentials:
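HEK293 cells transiently transfected with NaP2b cDNA, endogenous PiT transport suppressed; ^33P-phosphate uptake measured in sodium vs choline buffer (100 uM KH2PO4, pH 7.4) for 3–30 min at room temperature. Twelve concentrations, 0.1 nM–30 uM, in duplicate; uptake by scintillation counting, pIC50 calculated.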

The structures appear in SMILES notation.

For the compound `COCCNC(=O)CCSCc1cccc(C(=O)Nc2ccc(N3CCCCC3)cc2C(=O)N/N=C/c2ccc(Cl)c(C(F)(F)F)c2)c1` [Ex. 49, (E)-N-(2-(2-(4-chloro-3-(trifluoromethyl)benzylidene)hydrazinecarbonyl)-4-(piperidin-1-yl)phenyl)-3-((3-(2-methoxyethylamino)-3-oxopropylthio)methyl)benzamide], the IC50 was 0.1 to 0.794 µM.
The figure for `O=C(NCCN1CCOCC1)c1cccc(C(=O)Nc2ccc(N3CCCCC3)cc2C(=O)N/N=C/c2ccc(Cl)c(C(F)(F)F)c2)c1` [Ex. 53, (E)-N^1-(2-(2-(4-chloro-3-(trifluoromethyl)benzylidene)hydrazinecarbonyl)-4-(piperidin-1-yl)phenyl)-N3-(2-morpholinoethyl)isophthalamide] is 0.1 to 0.794 µM.

Values taken from patent US20140023611A1 (priority 2010, published 2014).
